# How the values were obtained:
# [1] = target: T1, HCV genotype 1b (BK) NS3 modified enzyme with a R155K mutation (Hepatitis C virus genotype 1b, UniProt P26663, R1181K); test: HCV NS3 protease time-resolved fluorescence (TRF) assay, genotype 1b R155K; format: biochemical; conditions: Ki 1b R155K, genotype 1b (BK) NS3 R155K; single value
# T1 construct: HCV genotype 1b (BK) NS3 modified enzyme
# How it was run: (§1)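 IC50 values derive from 4-parameter fitting of TRF signal after a 6 h room-temperature cleavage of 25 nM peptide substrate by NS3/NS4A that had been pre-incubated 10 min with compound.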
# [2] = target: HCV NS3 protease genotype 3a (3A-1) (Hepatitis C virus genotype 3a, UniProt Q81258); test: HCV NS3 protease time-resolved fluorescence (TRF) assay, genotype 3a; format: biochemical; conditions: Ki 3a
# How it was run: as §1
SMILES,Ki [1] [nM],Ki [2] [nM]
"C=C[C@@H]1C[C@]1(NC(=O)[C@@H]1C[C@@H]2CN1C(=O)[C@H](C1CCCC1)NC(=O)O[C@@H]1CCC[C@H]1CC/C=C/Cc1c(nc3ccccc3c1OCCC1OCCO1)O2)C(=O)NS(=O)(=O)C1(C)CC1 [Example 50, (3aR,7S,10S,12R,21E,24aS)-7-cyclopentyl-19-[2-(1,3-dioxolan-2-yl)ethoxy]-N-[(1R,2S)-2-ethenyl-1-{[(1-methylcyclopropyl)sulfonyl]carbamoyl}cyclopropyl]-5,8-dioxo-1,2,3,3a, 5,6,7,8,11,12,20,23,24,24a-tetradeca hydro-10H-9,12-methanocyclopenta[18,19][1,10,3,6]dioxadiazacyclononadecino[11,12-b] quinoline-10-carboxamide]",0.23,6.6
"C=C[C@@H]1C[C@]1(NC(=O)[C@@H]1C[C@@H]2CN1C(=O)[C@H](C(C)(C)C)NC(=O)O[C@@H]1CCC[C@H]1CC/C=C/Cc1c(nc3ccccc3c1OCCN1CCOCC1)O2)C(=O)NS(=O)(=O)C1CC1 [Example 51, (3aR,7S,10S,12R,21E,24aS)-7-tert-butyl-N-{(1R,2S)-1-[(cyclopropylsulfonyl)carbamoyl]-2-ethenylcyclopropyl}-19-[2-(morpholin-4-yl)ethoxy]-5,8-dioxo-1,2,3,3a,5,6,7,8,11,12, 20,23,24,24a-tetradeca hydro-10H-9,12-methanocyclopenta[18,19][1,10,3,6] dioxadiazacyclononadecino[11,12-b] quinoline-10-carboxamide]",0.21,1.9
"C=C[C@@H]1C[C@]1(NC(=O)[C@@H]1C[C@@H]2CN1C(=O)[C@H](C(C)(C)C)NC(=O)O[C@@H]1CCC[C@H]1CC/C=C/Cc1c(nc3ccccc3c1OCCn1cccc1)O2)C(=O)NS(=O)(=O)C1CC1 [Example 52, (3aR,7S,10S,12R,21E,24aS)-7-tert-butyl-N-{(1R,2S)-1-[(cyclopropylsulfonyl)carbamoyl]-2-ethenylcyclopropyl}-5,8-dioxo-19-[2-(1H-pyrrol-1-yl)ethoxy]-1,2,3,3a,5,6,7,8,11,12,20, 23,24,24a-tetradeca hydro-10H-9,12-methano cyclopenta[18,19][1,10,3,6]dioxadiazacyclo nonadecino[11,12-b]quinoline-10-carboxamide]",1.1,10
"C=C[C@@H]1C[C@]1(NC(=O)[C@@H]1C[C@@H]2CN1C(=O)[C@H](C1CCCC1)NC(=O)O[C@@H]1CCC[C@H]1CC/C=C/Cc1c(nc3ccccc3c1OCCCn1cnnc1)O2)C(=O)NS(=O)(=O)C1(C)CC1 [Example 53, (3aR,7S,10S,12R,21E,24aS)-7-cyclopentyl-N-[(1R,2S)-2-ethenyl-1-{[(1-methylcyclopropyl)sulfonyl]carbamoyl}cyclopropyl]-5,8-dioxo-19-[3-(4H-1,2,4-triazol-4-yl)propoxy]-1,2,3,3a,5,6,7,8,11,12,20,23,24,24a-tetra decahydro-10H-9,12-methanocyclopenta[18,19][1,10,3,6] dioxadiazacyclononadecino[11,12-b] quinoline-10-carboxamide]",0.11,0.55
"C=C[C@@H]1C[C@]1(NC(=O)[C@@H]1C[C@@H]2CN1C(=O)[C@H](C1CCCC1)NC(=O)O[C@@H]1CCC[C@H]1CC/C=C/Cc1c(nc3ccccc3c1OCCCN1CCCC1)O2)C(=O)NS(=O)(=O)C1(C)CC1 [Example 54, (3aR,7S,10S,12R,21E,24aS)-7-cyclopentyl-N-[(1R,2S)-2-ethenyl-1-{[(1-methylcyclopropyl)sulfonyl]carbamoyl}cyclopropyl]-5,8-dioxo-19-[3-(pyrrolidin-1-yl)propoxy]-1,2,3,3a,5,6,7,8,11,12,20,23,24,24a-tetradecahydro-10H-9,12-methanocyclopenta[18,19][1,10,3,6] dioxadiazacyclononadecino[11,12-b] quinoline-10-carboxamide]",0.02,0.45
"C=C[C@@H]1C[C@]1(NC(=O)[C@@H]1C[C@@H]2CN1C(=O)[C@H](C1CCCC1)NC(=O)O[C@@H]1CCC[C@H]1CC/C=C/Cc1c(nc3ccccc3c1OCCCn1cccc1)O2)C(=O)NS(=O)(=O)C1(C)CC1 [Example 55, (3aR,7S,10S,12R,21E,24aS)-7-cyclopentyl-N-[(1R,2S)-2-ethenyl-1-{[(1-methylcyclopropyl)sulfonyl]carbamoyl}cyclopropyl]-5,8-dioxo-19-[3-(1H-pyrrol-1-yl)propoxy]-1,2,3,3a,5,6,7,8,11,12,20,23,24,24a-tetradecahydro-10H-9,12-methanocyclopenta[18,19][1,10,3,6] dioxadiazacyclononadecino[11,12-b] quinoline-10-carboxamide]",0.22,3.9
"C=C[C@@H]1C[C@]1(NC(=O)[C@@H]1C[C@@H]2CN1C(=O)[C@H](C(C)(C)C)NC(=O)O[C@@H]1CCC[C@H]1CC/C=C/Cc1c(nc3ccccc3c1OCCCOCCOC)O2)C(=O)NS(=O)(=O)C1(C)CC1 [Example 56, (3aR,7S,10S,12R,21E,24aS)-7-tert-butyl-N-[(1R,2S)-2-ethenyl-1-{[(1-methylcyclopropyl)sulfonyl]carbamoyl}cyclopropyl]-19-[3-(2-methoxyethoxy)propoxy]-5,8-dioxo-1,2,3,3a,5,6,7,8,11,12,20,23,24,24a-tetradecahydro-10H-9,12-methanocyclopenta[18,19][1,10,3,6]dioxadiazacyclononadecino[11,12-b] quinoline-10-carboxamide]",0.09,0.95
"C=C[C@@H]1C[C@]1(NC(=O)[C@@H]1C[C@@H]2CN1C(=O)[C@H](C1CCCC1)NC(=O)O[C@@H]1CCC[C@H]1CC/C=C/Cc1c(nc3ccccc3c1OCCCOCCOC)O2)C(=O)NS(=O)(=O)C1(C)CC1 [Example 57, (3aR,7S,10S,12R,21E,24aS)-7-cyclopentyl-N-[(1R,2S)-2-ethenyl-1-{[(1-methylcyclopropyl)sulfonyl]carbamoyl}cyclopropyl]-19-[3-(2-methoxyethoxy)propoxy]-5,8-dioxo-1,2,3,3a, 5,6,7,8,11,12,20,23,24,24a-tetradecahydro-10H-9,12-methanocyclopenta[18,19][1,10,3,6]dioxadiazacyclononadecino[11,12-b] quinoline-10-carboxamide]",0.11,2.3
"C=C[C@@H]1C[C@]1(NC(=O)[C@@H]1C[C@@H]2CN1C(=O)[C@H](C1CCCC1)NC(=O)O[C@@H]1CCC[C@H]1CC/C=C/Cc1c(nc3ccccc3c1OCCCN1CCCCC1)O2)C(=O)NS(=O)(=O)C1(C)CC1 [Example 58, (3aR,7S,10S,12R,21E,24aS)-7-cyclopentyl-N-[(1R,2S)-2-ethenyl-1-{[(1-methylcyclopropyl)sulfonyl]carbamoyl}cyclopropyl]-5,8-dioxo-19-[3-(piperidin-1-yl)propoxy]-1,2,3,3a,5,6,7,8,11,12,20,23,24,24a-tetra decahydro-10H-9,12-methanocyclopenta[18,19][1,10,3,6] dioxadiazacyclononadecino[11,12-b] quinoline-10-carboxamide]",0.1,0.57
"C=C[C@@H]1C[C@]1(NC(=O)[C@@H]1C[C@@H]2CN1C(=O)[C@H](C(C)(C)C)NC(=O)O[C@@H]1CCC[C@H]1CC/C=C/Cc1c(nc3ccccc3c1OCCCN1CCCCC1)O2)C(=O)NS(=O)(=O)C1(C)CC1 [Example 59, (3aR,7S,10S,12R,21E,24aS)-7-tert-butyl-N-[(1R,2S)-2-ethenyl-1-{[(1-methylcyclopropyl)sulfonyl]carbamoyl}cyclopropyl]-5,8-dioxo-19-[3-(piperidin-1-yl)propoxy]-1,2,3,3a,5,6,7,8,11,12,20,23,24,24a-tetra decahydro-10H-9,12-methanocyclopenta[18,19][1,10,3,6] dioxadiazacyclononadecino[11,12-b] quinoline-10-carboxamide]",0.11,0.45
"C=C[C@@H]1C[C@]1(NC(=O)[C@@H]1C[C@@H]2CN1C(=O)[C@H](C1CCCC1)NC(=O)O[C@@H]1CCC[C@H]1CCCCCc1c(nc3ccccc3c1OCCN1CC3CCC1C3)O2)C(=O)NS(=O)(=O)C1CC1 [Example 60, (3aR,7S,10S,12R,24aR)-19-[2-(2-azabicycle [2.2.1]hept-2-yl)ethoxy]-7-cyclo pentyl-N-{(1R,2S)-1-[(cyclopropylsulfonyl)carbamoyl]-2-ethenylcyclopropyl}-5,8-dioxo-1,2,3,3a,5,6,7,8,11,12,20,21,22,23,24,24a-hexadecahydro-10H-9,12-methanocyclopenta [18,19][1,10,3,6]dioxadiazacyclononadecino [11,12-b]quinoline-10-carboxamide]",0.61,12
"C=C[C@@H]1C[C@]1(NC(=O)[C@@H]1C[C@@H]2CN1C(=O)[C@H](C(C)(C)C)NC(=O)O[C@@H]1CCC[C@H]1CCCCCc1c(nc3ccccc3c1OCCN1CCOCC1)O2)C(=O)NS(=O)(=O)C1(COC)CC1 [Example 61, (3aR,7S,10S,12R,24aR)-7-tert-butyl-N-[(1R,2S)-2-ethenyl-1-({[1-(methoxymethyl)cyclopropyl]sulfonyl}carbamoyl)cyclopropyl]-19-[2-(morpholin-4-yl)ethoxy]-5,8-dioxo-1,2,3,3a,5,6,7,8,11,12,20,21,22,23,24,24a-hexadecahydro-10H-9,12-methanocyclopenta[18,19][1,10,3,6]dioxadiazacyclononadecino[11,12-b]quinoline-10-carboxamide]",0.7,20
C=CC1C[C@]1(NC(=O)[C@@H]1C[C@@H]2CN1C(=O)[C@H](C(C)(C)C)NC(=O)O[C@@H]1CCC[C@H]1CCCCCc1c(nc3ccccc3c1OCCN1CCOCC1)O2)C(=O)NS(=O)(=O)C1(C(=C)C)CC1 (some centres unmarked) [Example 62],1.6,85
